Several values for one entry are separate records, joined by “and”; a condition that tells them apart may be missing. Identical values can stand only once. Like-named read-outs stand apart in the source and are kept apart here.
Legend:
Format in all cases: cell-based, human
HeLa cells [1] = test: Flow cytometry detection for cell apoptosis (Annexin V/PI); details: for Q1 (flow cytometry quadrant, Figure 4A) / Q4 (flow cytometry quadrant, Figure 4A) / Q2: FITC-A+ , PE-A+ Freq. of Parent / Q3: FITC-A+ , PE-A- Freq. of Parent: Annexin V/PI; for Q2: FITC-A+ , PE-A+ Freq. of Parent / Q3: FITC-A+ , PE-A- Freq. of Parent / Q2+Q3 (column without head, sum on percent scale): single samples
Method: Cell-apoptosis analysis was carried out by flow cytometry using the Annexin V/PI apoptosis kit (Solarbio, China) according to the manufacturer’s manual. Briefly, HeLa (5 × 10^4/well) cells were seeded in 12-well plates for 24 h and then treated with 0.1% DMSO (as control) or various concentrations of compounds 4d, 4k, and 4l for 72 h, respectively. Cells were harvested, washed with PBS, and then incubated with 100 μl of 1 × Annexin V binding buffer containing 1 μl FITC Annexin V for 10 min at RT in the dark. Cells were incubated for another 5 min at room temperature (RT) in the dark after 1 μl PI was added. PBS (200 µl) was added to each tube for flow cytometry analysis (BriCyte E6). The percentages of apoptotic cells were analyzed using FlowJo soft.

HeLa cells [2] = test: Cell antiproliferative activity assay (CCK8); details: Homo sapiens; for IC50: HeLa; for inhibition at 0.25 µM: 250 nM; for inhibition at 0.5 µM: 500 nM; for inhibition at 1 µM: 1000 nM; for inhibition at 2 µM: 2000 nM; for inhibition at 4 µM: 4000 nM; for inhibition at 8 µM: 8000 nM; for inhibition at 16 µM: 16000 nM
Method: Cell antiproliferative activity was evaluated by the Cell Counting Kit-8 (CCK8, DOJINDO, Japan) assay. The cells were seeded at a density of 2,000 cells per well into 96-well microplate in 100 μl of growth medium. Cells were incubated at 37°C and 5% CO2 overnight. The next day, 100 μl per well of diluted inhibitor in growth medium was added with the final concentration from 0.1 nM to 100 μM. The cells were treated with DMSO as control. A series of dilutions are made in 0.1% DMSO in assay medium so that the final concentration of DMSO is 0.1% in all of treatments. Cells were incubated at 37°C and 5% CO2 for 48 h. Then, 10 μl of CCK8 was added to each well. The plates were incubated at 37°C for 2 h; after that, the plates were recorded by measuring absorbance at 450 nm with the reference wavelength of 630 nm using an EnVision Multilabel Reader (PerkinElmer). The IC50 values were calculated using GraphPad Prism 6.0 software and determined by the concentration causing a half-maximal percent activity. All assays were conducted with three parallel samples and three repetitions.

HeLa cells [3] = test: Colony formation assay; details: for effect on cell colony formation: 2 weeks
Method: HeLa cells were seeded in six-well plates at the density of 500/well for 24 h, and then treated with 0.1% DMSO (as control), various concentrations of compounds 4d, 4k, and 4l, respectively. The cells were incubated for 2 weeks in a 5% CO2 environment at 37°C for colony formation. The media was gently removed from each of the plates, and then each plate was washed with PBS twice. The colonies were fixed with 4% polyformaldehyde for 10 min and then wash the cells with ddH2O twice. Stain with 1 ml Crystal Violet Staining Solution (Beyotime, China) for 10 min. Wash excess crystal violet with ddH2O and allow dishes to dry. Take pictures of the plate and count the colonies.

[4] = HELA 2000cells/well, Repeat1, read-out: Inhibition (%) Repeat1
[5] = HELA 2000cells/well, Repeat2, read-out: Inhibition (%) Repeat2

## COCCOc1cc2ncnc(Nc3cccc(-c4cn(Cc5cc(Br)cc(Br)c5)nn4)c3)c2cc1OCCOC [Compound 4d, [6,7-Bis-(2-methoxy-ethoxy)-quinazolin-4-yl]-{3-[1-(3,5-dibromo-benzyl)-1H-[1,2,3]triazol-4-yl]-phenyl}-amine]
HeLa cells [1]; 3 μM, 72 h
  Q1 (flow cytometry quadrant, Figure 4A): 5.78%
  Q4 (flow cytometry quadrant, Figure 4A): 84.2%
  Q2: FITC-A+ , PE-A+ Freq. of Parent: 9.25%
  Q3: FITC-A+ , PE-A- Freq. of Parent: 0.82%
HeLa cells [1]; 3 μM, 72 h, listed as e4
  Q2: FITC-A+ , PE-A+ Freq. of Parent: 6.79% and 7.35% and 9.25%
  Q3: FITC-A+ , PE-A- Freq. of Parent: 1.73% and 1.08% and 0.82%
HeLa cells [1]; 3 μM, listed as e4
  Q2+Q3 (column without head, sum on percent scale): 8.52 and 8.43 and 10.07
HeLa cells [1]; 6 μM, 72 h
  Q1 (flow cytometry quadrant, Figure 4A): 5.52%
  Q4 (flow cytometry quadrant, Figure 4A): 81.2%
  Q2: FITC-A+ , PE-A+ Freq. of Parent: 10.5%
  Q3: FITC-A+ , PE-A- Freq. of Parent: 2.69%
HeLa cells [1]; 6 μM, 72 h, listed as e4
  Q2: FITC-A+ , PE-A+ Freq. of Parent: 8.90% and 10.1% and 10.5%
  Q3: FITC-A+ , PE-A- Freq. of Parent: 3.61% and 5.29% and 2.69%
HeLa cells [1]; 6 μM, listed as e4
  Q2+Q3 (column without head, sum on percent scale): 12.51 and 15.39 and 13.19
HeLa cells [1]; 12 μM, 72 h
  Q1 (flow cytometry quadrant, Figure 4A): 2.40%
  Q4 (flow cytometry quadrant, Figure 4A): 5.68%
  Q2: FITC-A+ , PE-A+ Freq. of Parent: 86.4%
  Q3: FITC-A+ , PE-A- Freq. of Parent: 5.49%
HeLa cells [1]; 12 μM, 72 h, listed as e4
  Q2: FITC-A+ , PE-A+ Freq. of Parent: 86.4% and 80.4% and 81.8%
  Q3: FITC-A+ , PE-A- Freq. of Parent: 5.49% and 3.94% and 3.82%
HeLa cells [1]; 12 μM, 72 h, three independent experiments
  cell apoptosis in HeLa cells, percentage: 87.28%
HeLa cells [1]; 12 μM, listed as e4
  Q2+Q3 (column without head, sum on percent scale): 91.89 and 84.34 and 85.62
HeLa cells [2]; 48 h, HeLa cells, CCK8, 48 h, mean ± SD, n = 3, read-out: IC50 (μM) HeLa
  IC50: 7.02 ± 0.04 µM
HeLa cells [2]; HELA 2000cells/well, supplement DataSheet2, Repeat1, read-out: IC50 Repeat1
  IC50: 7.07 µM
HeLa cells [2]; HELA 2000cells/well, supplement DataSheet2, Repeat 2, read-out: IC50 Repeat 2
  IC50: 6.98 µM
HeLa cells [2]; HELA 2000cells/well, supplement DataSheet2, mean of two repeats ± SD, read-out: IC50 mean±SD
  IC50: 7.025 ± 0.0445 µM
HeLa cells [2]; [4]
  inhibition at 0.25 µM: 9.75%
  inhibition at 0.5 µM: 13%
  inhibition at 1 µM: 16.9%
  inhibition at 2 µM: 17%
  inhibition at 4 µM: 25.3%
  inhibition at 8 µM: 53.2%
  inhibition at 16 µM: 78.2%
HeLa cells [2]; [5]
  inhibition at 0.25 µM: 0%
  inhibition at 0.5 µM: 13.6%
  inhibition at 1 µM: 14%
  inhibition at 2 µM: 15.3%
  inhibition at 4 µM: 26.6%
  inhibition at 8 µM: 54.6%
  inhibition at 16 µM: 78.4%
HeLa cells [3]; 6 μM
  effect on cell colony formation: decrease the number of colonies
HeLa cells [3]; 12 μM
  effect on cell colony formation: entirely inhibited
HeLa cells [3]; 12 uM, repeats 1-3
  Number of Colonies /well: 0
